Where two headings read alike, the source gives them in different places.
Columns and labels:
Experiment in all cases: microbe, parasite or virus in culture
[1] = system: A. nosocomialis clinical isolate; format: cell-based; settings: Acinetobacter nosocomialis, isolate ARC7023 (IHMA 2118812), France, BSI, 2019, read-out: MIC
Procedure, shortened: (§1)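 SUL-DUR combines serially twofold-diluted sulbactam with durlobactam held at 4 µg/mL; MICs obtained by CLSI-standard broth microdilution and read against CLSI breakpoints when these exist.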

[2] = system: A. pittii clinical isolates; format: cell-based; settings: Acinetobacter pittii
Procedure, shortened: as §1

[3] = system: A. baumannii clinical isolates; format: cell-based; settings: Acinetobacter baumannii
Procedure, shortened: as §1

[4] = system: ABC clinical isolates with SUL-DUR MIC > 4 µg/mL; format: cell-based, Acinetobacter baumannii-calcoaceticus complex
Procedure, shortened: as §1

Compound: C[C@@H](O)[C@H]1C(=O)N2C(C(=O)O)=C(SCCN=CN)C[C@H]12 [imipenem]
- MIC [1]: 64 µg/mL
- MIC ([2]; isolate ARC6949 (IHMA 1898982), Romania, RTI, 2018, read-out: MIC): > 64 µg/mL
- MIC ([2]; isolate ARC6951 (IHMA 1776233), Philippines, RTI, 2018, read-out: MIC): > 64 µg/mL
- MIC ([2]; isolate ARC6952 (IHMA 1899008), Romania, RTI, 2018, read-out: MIC): > 64 µg/mL
- MIC ([2]; isolate ARC7087 (IHMA 2212062), Colombia, BSI, 2020, read-out: MIC): 64 µg/mL
- MIC ([3]; isolate ARC6644 (IHMA 1420327), Mexico, UTI, 2016, read-out: MIC): 16 µg/mL
- MIC ([3]; isolate ARC6645 (IHMA 1435703), France, UTI, 2016, read-out: MIC): > 64 µg/mL
- MIC ([3]; isolate ARC6646 (IHMA 1484127), United States, RTI, 2016, read-out: MIC): 64 µg/mL
- MIC ([3]; isolate ARC6647 (IHMA 1386786), Argentina, RTI, 2016, read-out: MIC): > 64 µg/mL
- MIC ([3]; isolate ARC6648 (IHMA 1407634), Spain, RTI, 2016, read-out: MIC): > 64 µg/mL
- MIC ([3]; isolate ARC6650 (IHMA 1457337), Argentina, RTI, 2016, read-out: MIC): 32 µg/mL
- MIC ([3]; isolate ARC6652 (IHMA 1465642), Belgium, RTI, 2016, read-out: MIC): 64 µg/mL
- MIC ([3]; isolate ARC6653 (IHMA 1308777), Vietnam, RTI, 2016, read-out: MIC): 64 µg/mL
- MIC ([3]; isolate ARC6799 (IHMA 1562935), Spain, UTI, 2017, read-out: MIC): 64 µg/mL
- MIC ([3]; isolate ARC6800 (IHMA 1557526), Turkey, RTI, 2017, read-out: MIC): 64 µg/mL
- MIC ([3]; isolate ARC6801 (IHMA 1662094), Thailand, RTI, 2017, read-out: MIC): > 64 µg/mL
- MIC ([3]; isolate ARC6802 (IHMA 1557073), Spain, UTI, 2017, read-out: MIC): 64 µg/mL
- MIC ([3]; isolate ARC6803 (IHMA 1589408), Belgium, UTI, 2017, read-out: MIC): 64 µg/mL
- MIC ([3]; isolate ARC6805 (IHMA 1558650), United States, RTI, 2017, read-out: MIC): 32 µg/mL
- MIC ([3]; isolate ARC6808 (IHMA 1557168), Spain, RTI, 2017, read-out: MIC): 64 µg/mL
- MIC ([3]; isolate ARC6809 (IHMA 1699528), Guatemala, RTI, 2017, read-out: MIC): > 64 µg/mL
- MIC ([3]; isolate ARC6810 (IHMA 1699548), Guatemala, RTI, 2017, read-out: MIC): > 64 µg/mL
- MIC ([3]; isolate ARC6812 (IHMA 1699530), Guatemala, RTI, 2017, read-out: MIC): 64 µg/mL
- MIC ([3]; isolate ARC6813 (IHMA 1699543), Guatemala, UTI, 2017, read-out: MIC): > 64 µg/mL
- MIC ([3]; isolate ARC6814 (IHMA 1699512), Guatemala, RTI, 2017, read-out: MIC): > 64 µg/mL
- MIC ([3]; isolate ARC6815 (IHMA 1699513), Guatemala, RTI, 2017, read-out: MIC): > 64 µg/mL
- MIC ([3]; isolate ARC6816 (IHMA 1699521), Guatemala, RTI, 2017, read-out: MIC): > 64 µg/mL
- MIC ([3]; isolate ARC6817 (IHMA 1699523), Guatemala, RTI, 2017, read-out: MIC): > 64 µg/mL
- MIC ([3]; isolate ARC6818 (IHMA 1683261), Thailand, RTI, 2017, read-out: MIC): > 64 µg/mL
- MIC ([3]; isolate ARC6819 (IHMA 1683267), Thailand, RTI, 2017, read-out: MIC): > 64 µg/mL
- MIC ([3]; isolate ARC6820 (IHMA 1647876), Argentina, RTI, 2017, read-out: MIC): 64 µg/mL
- MIC ([3]; isolate ARC6821 (IHMA 1699517), Guatemala, RTI, 2017, read-out: MIC): > 64 µg/mL
- MIC ([3]; isolate ARC6822 (IHMA 1637626), Guatemala, RTI, 2017, read-out: MIC): 64 µg/mL
- MIC ([3]; isolate ARC6823 (IHMA 1620872), Greece, SSSI, 2017, read-out: MIC): 64 µg/mL
- MIC ([3]; isolate ARC6824 (IHMA 1625487), Argentina, BSI, 2017, read-out: MIC): 64 µg/mL
- MIC ([3]; isolate ARC6937 (IHMA 1562926), Spain, UTI, 2017, read-out: MIC): 64 µg/mL
- MIC ([3]; isolate ARC6950 (IHMA 1820064), Israel, RTI, 2018, read-out: MIC): > 64 µg/mL
- MIC ([3]; isolate ARC6953 (IHMA 1909827), Turkey, IAI, 2018, read-out: MIC): 64 µg/mL
- MIC ([3]; isolate ARC6954 (IHMA 1838192), Guatemala, SSSI, 2018, read-out: MIC): > 64 µg/mL
- MIC ([3]; isolate ARC6955 (IHMA 1825425), United States, RTI, 2018, read-out: MIC): 64 µg/mL
- MIC ([3]; isolate ARC7008 (IHMA 2009813), Thailand, BSI, 2019, read-out: MIC): > 64 µg/mL
- MIC ([3]; isolate ARC7009 (IHMA 2043611), United States, UTI, 2019, read-out: MIC): > 64 µg/mL
- MIC ([3]; isolate ARC7010 (IHMA 2043398), United States, RTI, 2019, read-out: MIC): > 64 µg/mL
- MIC ([3]; isolate ARC7011 (IHMA 2104553), Germany, RTI, 2019, read-out: MIC): > 64 µg/mL
- MIC ([3]; isolate ARC7012 (IHMA 2010001), Thailand, RTI, 2019, read-out: MIC): > 64 µg/mL
- MIC ([3]; isolate ARC7013 (IHMA 1962831), Argentina, RTI, 2019, read-out: MIC): > 64 µg/mL
- MIC ([3]; isolate ARC7014 (IHMA 2045328), Guatemala, IAI, 2019, read-out: MIC): 64 µg/mL
- MIC ([3]; isolate ARC7015 (IHMA 2045327), Guatemala, UTI, 2019, read-out: MIC): 64 µg/mL
- MIC ([3]; isolate ARC7016 (IHMA 2148441), Brazil, BSI, 2019, read-out: MIC): > 64 µg/mL
- MIC ([3]; isolate ARC7017 (IHMA 2148446), Brazil, BSI, 2019, read-out: MIC): > 64 µg/mL
- MIC ([3]; isolate ARC7018 (IHMA 2045454), Guatemala, IAI, 2019, read-out: MIC): > 64 µg/mL
- MIC ([3]; isolate ARC7019 (IHMA 2114463), Thailand, RTI, 2019, read-out: MIC): > 64 µg/mL
- MIC ([3]; isolate ARC7020 (IHMA 2045326), Guatemala, RTI, 2019, read-out: MIC): 64 µg/mL
- MIC ([3]; isolate ARC7021 (IHMA 1966347), Guatemala, RTI, 2019, read-out: MIC): 64 µg/mL
- MIC ([3]; isolate ARC7022 (IHMA 2045319), Guatemala, IAI, 2019, read-out: MIC): 64 µg/mL
- MIC ([3]; isolate ARC7024 (IHMA 2059448), Turkey, RTI, 2019, read-out: MIC): 64 µg/mL
- MIC ([3]; isolate ARC7025 (IHMA 2002121), Spain, RTI, 2019, read-out: MIC): 64 µg/mL
- MIC ([3]; isolate ARC7026 (IHMA 2104494), Guatemala, BSI, 2019, read-out: MIC): > 64 µg/mL
- MIC ([3]; isolate ARC7082 (IHMA 2160640), Belgium, BSI, 2020, read-out: MIC): > 64 µg/mL
- MIC ([3]; isolate ARC7083 (IHMA 2163687), United States, RTI, 2020, read-out: MIC): 64 µg/mL
- MIC ([3]; isolate ARC7084 (IHMA 2189596), Germany, RTI, 2020, read-out: MIC): > 64 µg/mL
- MIC ([3]; isolate ARC7085 (IHMA 2205747), Guatemala, IAI, 2020, read-out: MIC): > 64 µg/mL
- MIC ([3]; isolate ARC7086 (IHMA 2207563), Israel, RTI, 2020, read-out: MIC): > 64 µg/mL
- MIC ([3]; isolate ARC7088 (IHMA 2215554), Turkey, BSI, 2020, read-out: MIC): > 64 µg/mL
- MIC ([3]; isolate ARC7089 (IHMA 2240345), Argentina, BSI, 2020, read-out: MIC): 64 µg/mL
- MIC ([3]; isolate ARC7090 (IHMA 2244410), Poland, RTI, 2020, read-out: MIC): > 64 µg/mL
- MIC ([3]; isolate ARC7091 (IHMA 2244564), Australia, RTI, 2020, read-out: MIC): > 64 µg/mL
- MIC ([3]; isolate ARC7092 (IHMA 2258772), United States, BSI, 2020, read-out: MIC): > 64 µg/mL
- MIC ([3]; isolate ARC7093 (IHMA 2258783), United States, RTI, 2020, read-out: MIC): > 64 µg/mL
- MIC ([3]; isolate ARC7094 (IHMA 2296423), Turkey, RTI, 2020, read-out: MIC): 64 µg/mL
- MIC ([3]; isolate ARC7095 (IHMA 2320843), Turkey, BSI, 2020, read-out: MIC): 64 µg/mL
- MIC ([3]; isolate ARC7156 (IHMA 2455450), Greece, RTI, 2021, read-out: MIC): > 64 µg/mL
- MIC ([3]; isolate ARC7158 (IHMA 2523738), Italy, BSI, 2021, read-out: MIC): > 64 µg/mL
- MIC ([3]; isolate ARC7159 (IHMA 2456229), Malaysia, RTI, 2021, read-out: MIC): > 64 µg/mL
- MIC ([3]; isolate ARC7160 (IHMA 2458626), Thailand, RTI, 2021, read-out: MIC): > 64 µg/mL
- MIC ([3]; isolate ARC7161 (IHMA 2429252), Ukraine, RTI, 2021, read-out: MIC): > 64 µg/mL
- MIC ([3]; isolate ARC7162 (IHMA 2411847), United States, BSI, 2021, read-out: MIC): > 64 µg/mL
- MIC ([3]; isolate ARC7163 (IHMA 2477704), United States, BSI, 2021, read-out: MIC): > 64 µg/mL
- %NS (% non-susceptibility) ([4]; 64 non-clonal ABC isolates, 2023 CLSI breakpoints plus FDA breakpoint of 4 µg/mL for SUL-DUR): 100%
- MIC50 ([4]; Acinetobacter): > 64 µg/mL
- MIC90 ([4]; Acinetobacter): > 64 µg/mL
- MIC ([4]; Acinetobacter, read-out: MIC Max): > 64 µg/mL
- MIC ([4]; Acinetobacter, read-out: MIC Min): 16 µg/mL
